Five compounds from US7238682B1, “Methods and compositions for degradation and/or inhibition of HER-family tyrosine kinases” (Sloan-Kettering Institute for Cancer Research, priority 1999, dated 2007) can be followed below.

Type in all cases: cell-based, human
In assay [1] the test system is MCF-7 cells. Kind of assay: MCF-7 cell growth inhibition (cell counting). The conditions noted are these: MCF-7 cells treated for four days, average of three experiments, read-out: IC50 (growth inh.). The procedure: (§1) The human breast cancer cell lines MCF-7 and SKBR-3 were obtained from ATCC (Rockville, Md.), and maintained in DME/F12 (1:1) supplemented with 10% heat-inactivated fetal bovine serum (Gemini Bioproducts), 2 mM glutamine, and 50 units/ml each of penicillin and streptomycin, in a humidified 5% CO2/air atmosphere at 37° C.
For cell growth experiments, cells were placed in 6-well tissue-culture plates (Corning) at 20,000 cells/well. Two days after plating, cells were treated with different concentrations of drugs or the vehicle DMSO (0.1%). MCF-7 cells were treated for four days; medium with the appropriate drug or vehicle was changed every 2 days; cells were trypsinized, collected and counted on a Coulter counter; IC50 for cell growth is designated as the amount of each drug needed to inhibit MCF-7 growth by 50% compared to the control vehicle.

Assay [2] concerns Raf-1. Kind of assay: Induction of Raf-1 degradation in MCF-7 cells (immunoblotting). To be noted: for IC50: MCF-7 cells, 24-hr treatment, amount of drug needed to degrade 50% of the protein, average of three experiments. The procedure: as §1
(§2) Polyclonal antibodies against HER2 (c-18), Raf-1 (c-12), and P13 kinase (p85) (Z-8) were purchased from Santa Cruz Biotechnology, Inc. A monoclonal antibody against estrogen receptor (clone H-151) was obtained from StressGen Biotechnology Corp. A polyclonal antibody against the β-subunit of IGF-I receptor was kindly provided by Dr. L-H, Wang (Mt. Sinai Medical Center, New York).
(§3) After exposure, cells were washed twice with ice-cold phosphate-buffered saline (PBS), collected by scraping and transferred into microcentrifuge tubes. For immunoblotting (HER2, Raf-1, ER), cells were lysed with SDS lysis buffer (50 mM Tris-HCl, pH 7.5, 2% SDS, 10% glycerol, and 1 mM DTT), boiled for 10 min, and sonicated briefly; for immunoprecipitation (IGF-IR), cells were lysed with NP40 lysis buffer (50 mM Tris-HCl, pH 7.5, 1% Nonidet P-40, 150 mM NaCl, 1 mM Na3VO4, 40 mM NaF, 1 mM phenylmethylsulfonyl fluoride (PMSF) and 10 μg/ml each of aprotinin, leupeptin and soybean trypsin inhibitor) for 20 min at 4° C. Cell lysates were cleared by centrifuging at 14,000×g for 15 min at 4° C. in a microcentrifuge; the supernatants were collected as the experimental samples. Protein concentration in each sample was determined using the BCA kit (Pierce) according to the manufacture's instructions. For detecting IGF-IR, samples were immunoprecipitated with anti-IGF-IR antibody. Immunocomplexes were collected on protein A-Sepharose beads (Pharmacia), washed three times with the lysis buffer. Samples were subjected to SDS-PAGE, electrotransferred to nitrocellulose membranes, detected using the ECL kit (Amersham) according to the manufacturer's protocol, and quantitated using the Gel Doc 1000 (Bio-Rad).
(In western blotting, separated proteins are transferred to a membrane and probed.)

Assay [3] has as its system HER2. Description: Induction of HER2 degradation in MCF-7 cells (immunoblotting). To be noted: for IC50: MCF-7 cells, 24-hr treatment, amount of drug needed to degrade 50% of the protein, average of three experiments, read-out: IC50 (HER-2). The procedure: as §1, §2, §3

Like-named read-outs stand apart in the source and are kept apart here.

By IC50 is commonly meant the midpoint of a concentration-inhibition curve.

For `COC1C=CC=C(C)C(=O)NC2=CC(=O)C(NCCCCCCCCCNC3=C4CC(C)CC(OC)C(O)C(C)C=C(C)C(OC(N)=O)CC(OC)C=CC=C(C)C(=O)NC(=CC3=O)C4=O)=C(CC(C)CC(OC)C(O)C(C)C=C(C)C(OC(N)=O)C1)C2=O` (stereo not drawn) [9 O———O], the IC50 amounted to 700 nM in assay [1] (Homo sapiens, MCF7, 96 h); 3800 nM in assay [2]; 500 nM in assay [3].
As to `COC1C=CC=C(C)C(=O)NC2=CC(=O)C(NCCCCCCCCCCCCNC3=C4CC(C)CC(OC)C(O)C(C)C=C(C)C(OC(N)=O)CC(OC)C=CC=C(C)C(=O)NC(=CC3=O)C4=O)=C(CC(C)CC(OC)C(O)C(C)C=C(C)C(OC(N)=O)C1)C2=O` (stereo not drawn) [12 O———O], the IC50 came out at 700 nM in assay [1] (Homo sapiens, MCF7, 96 h); 3500 nM in assay [2]; 750 nM in assay [3].
On to `COC1C=CC=C(C)C(=O)NC2=CC(=O)C(NCCCCN)=C(CC(C)CC(OC)C(O)C(C)C=C(C)C1OC(N)=O)C2=O` (stereo not drawn) [ButylaminoGM], for which the IC50 is 600 nM in assay [1], 350 nM in assay [2] and 80 nM in assay [3]. In addition, in assay [2] (degradation in MCF-7 cells), the “Activity against Raf-1 (in words)” value is given as “modestly weaker than GM”. Moreover, the “Activity against HER2 (in words)” value in assay [3] (degradation in MCF-7 cells) was “modestly weaker than GM”. In addition, in assay [3] (degradation in MCF-7 cells, compared to GM), the “Selectivity / specificity for HER-2 over Raf-1” value was “not selective”.
For `COC1=C2C[C@@H](C)C[C@H](OC)[C@H](O)[C@@H](C)/C=C(\C)[C@H](OC(N)=O)[C@@H](OC)/C=C\C=C(/C)C(=O)NC(=CC1=O)C2=O` [GM, Geldanamycin, reference compound], the IC50 in assay [1] (Homo sapiens, MCF7, 96 h) amounted to 25 nM; in assay [2] it was 200 nM; in assay [3], 45 nM.
The matching figures for `COC1C=CC=C(C)C(=O)NC2=CC(=O)C(NCCCCCCCNC3=C4CC(C)CC(OC)C(O)C(C)C=C(C)C(OC(N)=O)CC(OC)C=CC=C(C)C(=O)NC(=CC3=O)C4=O)=C(CC(C)CC(OC)C(O)C(C)C=C(C)C(OC(N)=O)C1)C2=O` (stereo not drawn) [GMD-7c]: 600 nM, 500 nM and 70 nM.
